Results: patent US20200368280A1, “EPIGENETIC MODIFIERS FOR USE IN CELLULAR IMMUNOTHERAPY” (Viracta Therapeutics, Inc., priority 2018, published 2020)
Like-named read-outs stand apart in the source and are kept apart here.

Key:
[1] = test system: exhausted T cell population (CD8+ T cells) from PBMC; experiment: T cell exhaustion assay, CEFT-exhausted PBMC restimulated with DC and CEFT; format: cell-based, human; details: for CD8+ T cell proliferation (FIG. 9B, 9C) / IFN-γ release by restimulated CD8+ T cells (percent IFNγ secreting CD8+ cells, FIG. 11): restimulated with CEFT; for CD8+ T cell proliferation (FIG. 9B, 9C): compared to CEFT alone
Procedure: FIGS. 12A, 12B and 12C show the effects of anti-PD-1 and nanatinostat treatment on IFN-γ, TNFα, and TGFβ. Isolated PBMC were exhausted with CEFT-stimulation for 10 days prior to being restimulated with moDC and CEFT peptide with compound treatment for an additional 4 days. Luminex analysis was performed and levels of IFN-γ (FIG. 12A), TNFα (FIG. 12B), and TGFβ (FIG. 12C). Dotted lines denote anti-PD-1 control treatment and vehicle control treatment as indicated.
To test whether nanatinostat can be used to reverse T cell exhaustion, whether by itself or in combination with PD-1, a standard T cell exhaustion assay was used. Peripheral Blood Mononuclear Cells (PBMC) were separated over a density gradient from 3 single human donor buffy coats. PBMC were stimulated with pooled pathogen-specific class I peptides (CEFT) to generate an exhausted T cell population. Cells were then re-stimulated with CEFT and autologous monocyte-derived dendritic cells for a further time before testing in a final re-stimulation assay using replenished DC and CEFT to monitor reversal of exhaustion. […] One dose of HDAC inhibitor was tested and a single dose of anti-PD-1 was used. An unstimulated control and a reference HDAC inhibitor were also plated. Cultures were pulsed with 3H-thymidine and proliferation assessed. Supernatants were also harvested for cytokine analysis by multiplex. Samples of cells were stained with an antibody panel directed against CD4, CD8, PD-1, IL-15R, TIGIT, CD45RO, CCR7, IFNγ and CD25 and characterized using flow cytometry in order to confirm their exhausted phenotype, and whether expression levels were altered following exposure to the combination therapies. PBMC were also phenotyped using the above panel at day 0 to determine the initial frequency of cell populations.

[2] = test system: BALB/c splenocytes (FoxP3+, CD25+ T regulatory cells); experiment: FACS analysis of splenocytes treated 24 hours with HDAC inhibitor; format: cell-based, BALB/c mice
Procedure: Test agents were added to each plate at the concentrations indicated in the table below and were incubated for 24 hours prior to FACS analysis. FACS analysis consisted of the following markers: live/dead, CD45, CD3, CD4, CD25 and FoxP3.

[3] = test system: T cells in CT26 tumors; experiment: FACS analysis of CT26 tumors on Day 9; format: in vivo, Balb/c mice
Procedure: (§1) Nanatinostat alone and in combination with anti-mPD-1 was evaluated in the CT26 subcutaneous tumor model in Balb/c mice. Animals were dosed orally with nanatinostat at 25 mg/kg daily, and intraperitoneally with anti-mPD-1 at 10 mg/kg on a bi-weekly schedule. 8 animals per group were selected and tumors were collected for FACS and qPCR analysis on Day 9, 12-13 hours post dose. The remaining animals continued to receive their respective treatments until Day 21.
On Day 9, N=8/arm were harvested tumors for PD assessment 12-13 hours post last dose. Half of each tumor was placed in transfer buffer for FACS analysis.

[4] = test system: CT26 subcutaneous tumor; format: in vivo; details: nanatinostat 25 mg/kg orally daily, anti-mPD-1 10 mg/kg intraperitoneally
Procedure: as §1
144 female Balb/c mice (date of birth: Aug. 1, 2017) purchased from Jackson Laboratories were inoculated for the study. Animals were housed for a stabilization period of 5 days prior to inoculation. Animals were housed in individual HEPA ventilated cages (Innocage® IVC, Innovive USA). Fluorescent lighting was provided on a 12-hour cycle. Temperature and humidity was monitored and recorded daily and maintained to the maximum extent possible between 68-74° F. (20-23° C.) and 30-70% humidity, respectively. 2920X.10 18% soy irradiated rodent feed (Envigo) and autoclaved acidified water (pH2.5-3) was provided ad libitum.
CT26 cells were cultured as per ATCC's recommended culture protocol. For inoculation, cells were washed in PBS, counted, and resuspended in cold PBS at a concentration of 250,000 viable cells/100 μl. Cell suspension was kept on ice during transport to the vivarium. Cells were prepared for injections by withdrawing cells into a chilled 1 ml syringe fitted with a 26G 7/8 (0.5 mm×22 mm) needle.
Animals were prepared as needed for injection using standard approved anesthesia, and the mice were shaved prior to injection. One mouse at a time was immobilized and the site of injection was disinfected with an alcohol swab. 100 μl of the cell suspension was subcutaneously injected into the rear flank of the mouse. Mice were marked by ear tagging.
Animals were monitored daily for palpable tumors, or any changes in appearance or behavior. Once tumors were palpable, they were measured using calipers. Tumor volume was calculated using the following equation (longest diameter×shortest diameter^2)/2.

[5] = test system: gene expression in CT26 tumors; experiment: qPCR gene expression analysis of CT26 tumors on Day 9; format: in vivo, Balb/c mice; details: Day 9, tumors
Procedure: as §1
On Day 9, N=8/arm was harvested tumors for PD assessment. Half of each tumor was flash frozen for subsequent qPCR analysis. Fragments of flash frozen tumors were transferred in RLT PLUS buffer (Qiagen) and loaded into labelled and prefilled tubes with beads and homogenized for 60 seconds at maximum speed. RNA was extracted with AllPrep DNA/RNA Mini kit, purchased from Qiagen, according to the manufacturer's protocol. RNA quantity and purity was evaluated by Synergy 2 Multi-Mode Reader according to the Biotec Protocol. 750 ng total RNA from each sample was used to generate cDNA in a 20 μl reaction. The reaction was performed to the standard of Superscript III First-Strand Synthesis protocol by ThermoFisher by using Eppendorf Mastercycler Pro. […] Gene expression data was analyzed on the ViiA7 system using ABI 2.1 software to generate the raw data. […]

[6] = 1 uM, 24 hours, percentage ± SD
[7] = combination vs anti PD-1 only, nanatinostat only vs vehicle
[8] = 100 nM, 24 hours, percentage ± SD
[9] = listed as head prints 'nM' (1 nM), 24 hours, percentage ± SD

Compound	CD8+ T cell proliferation (FIG. 9B, 9C) [1]	CD45+ [2, 6] [%]	IFN-γ release by restimulated CD8+ T cells (percent IFNγ secreting CD8+ cells, FIG. 11) [1]	CXCR3 expressing cell population in CD4+ T cells in tumors (FIG. 5A) [3, 7]	CXCR3 expressing cell population in CD8+ T cells in tumors (FIG. 5B) [3, 7]	CD8+ T-cell population in tumors ([3]; compared to the vehicle group)	T cell infiltration in tumors (FIG. 4) ([3]; compared to vehicle or anti-PD-1 group, p-value 0.007 for both)	CD45+ [2, 8] [%]	CD45+ CD3+ [2, 8] [%]	CD45+ ([2]; 500 nM, 24 hours, percentage ± SD) [%]	concentration at which the suppressive effect on FoxP3, CD25+ T cells was still seen ([2]; at least as low as) [nM]	CD45+ [2, 9] [%]	CD45+ CD3+ CD4+ FoxP3+ [2, 9] [%]	inhibition of tumor growth ([4]; Day 3) [%]	inhibition of tumor growth ([4]; Day 4) [%]	inhibition of tumor growth ([4]; Day 7) [%]	inhibition of tumor growth ([4]; Day 9) [%]	inhibition of tumor growth ([4]; Day 9, listed as nanatinostat) [%]	KLRC2 expression on NK cells (FIG. 8) [5]	cell viability (FIG. 10A, 10B) ([1]; compared to Entinostat)
anti-PD-1 (Pembrolizumab): anti-PD-1 antibody used in the human T cell exhaustion assay [reference compound]	restored proliferation																			
Nc1ccccc1NC(=O)c1ccc(CNC(=O)OCc2cccnc2)cc1 [Entinostat, reference compound]		99.1 ± 0.27	reduced																	
O=C(NO)c1cnc(N2CC3C(C2)C3NCc2ccc3cc(F)ccc3n2)nc1 (centres unmarked) [Nanatinostat, 2-(6-{[(6-Fluoroquinolin-2-yl)methyl]amino}-3-azabicyclo[3.1.0]hex-3-yl)-N-hydroxypyrimidine-5-carboxamide]	negative effect	99.6 ± 0.17	little effect	no significant difference	no significant difference	higher	significantly increased	99.6 ± 0.12	94 ± 0.83	99.5 ± 0.29	≤ 100	98.6 ± 0.36	12 ± 1.51	16.20	23.31	38.94	33.81	33	increased	well tolerated
